Assay results from article PMC10333884, “Large‐scale phosphomimetic screening identifies phospho‐modulated motif‐based protein interactions” (Molecular Systems Biology, 2023).
Each block holds one molecule with its values, some of them ahead of it. Non-standard residues stand in square brackets, D forms with d. Residues, ends and D or L forms follow the SMILES beside them. pS = N[C@@H](COP(=O)(O)O)C(=O)O

Tests used:
KPNA4 ARM minor = target: T1, KPNA4 ARM minor (Homo sapiens, UniProt O00629); experiment: FP displacement assay, KPNA4 ARM minor pocket; assay type: binding; details: minor pocket probe FITC-NCOR2 5 nM, 50 mM sodium phosphate pH 7.4, room temperature, at least three technical replicates, read-out: KD values ± SEM
T1 construct: 60-487; GST (cleaved yes); made in house; host or cells: Escherichia coli BL21-Gold(DE3)
Experimental: (§1) FP experiments were performed as described previously (Kliche et al, [2021]). Shortly, in order to monitor the binding event, FITC‐labelled peptides were used (excitation 495 nm, emission: 535 nm) and the FP signal was recorded in mP on a SpectraMax iD5 Multi‐Mode Microplate Reader (Molecular Devices) by measuring the emitted light in two angels. The measurements were performed at room temperature and prepared in nonbinding black half area 96‐well microplates (Corning®; 50 μl/well). For measuring direct binding, that is saturation curves, a 1:1 dilution series of protein domain (25 μl/well) was generated in 50 mM sodium phosphate buffer pH 7.4 and the measurement performed with 5 nM FITC‐labelled peptide (25 μl/well). The buffer‐corrected values were subsequently plotted with PRISM and fitted to the quadratic equation (Gianni et al, [2005]).
(§2) The 1:1 dilution series in this experiment was performed with the unlabelled peptide in 50 mM sodium phosphate buffer pH 7.4, so that each well‐contained unlabelled peptide (25 μl) at a certain concentration and pre‐formed complex (25 μl). The KD values of this indirectly monitored binding event were calculated as described previously (Nikolovska‐Coleska et al, [2004]). All measurements were at least in technical triplicates as well as biological duplicates when indicated. An amplitude shift between repeat measurements in the displacement experiments was occasionally observed due to variations in the protein preparations. If that was the case, the “active” protein concentration was back‐calculated according to the quadratic equation from the saturation curves performed in parallel. By comparing the active protein concentrations in the complex between different protein preparations, the amplitude was normalised.

KPNA4 ARM Major = target: T2, KPNA4 ARM Major (Homo sapiens, UniProt O00629); experiment: FP displacement assay, KPNA4 ARM major pocket; assay type: binding; details: major pocket probe FITC-MYC 5 nM, 50 mM sodium phosphate pH 7.4, room temperature, at least three technical replicates, read-out: KD values ± SEM
T2 construct: 60-487; GST (cleaved yes); made in house; host or cells: Escherichia coli BL21-Gold(DE3)
Experimental: as §1, §2

bait protein domains = experiment: Phosphomimetic ProP-PD selection against the PM_HD2 library (NGS counts, confidence level, PES), any bait; assay type: binding, human; set-up: Confidence / Max confidence: scale not given here; details: bait ABL1_SH3__P00519_60_121; for Has possible phosphoregulated psite? (PES +2/-2, p<0.01) / Max confidence: hit given as wt version; for Confidence / Promiscuity / Specificity: selection results by peptide
Experimental: Selections using the PM_HD2 phage library were performed as described previously with minor modification to the original protocol. The corresponding tag protein (either GST or MBP) was first used during negative selections. Selections were run for 4 days. • Bait and tag proteins (10–15 μg in 100 μl PBS) were immobilised in 96‐well MaxiSorb plate (NUNC) o.n. at 4°C. • Escherichia coli OmniMax bacteria were grown in 2YT medium supplemented with tetracycline (100 μg/ml) at 37°C and 200 rpm. • Plates with immobilised bait/tag proteins were blocked with 0.5% BSA in PBS for 1 h at 4°C. • Phage library (10 μl/well) was prepared by diluting 10× with PBS and adding one‐fourth of the volume of PEG/NaCl. For phage precipitation, prepared library was incubated for 10 min on ice followed by centrifugation for 10 min at 10,000 × g at 4°C. Phages were resuspended in 0.5% BSA, 0.05% Tween in PBS. • Plates with tag proteins were washed 4× with 0.05% Tween in PBS, and naïve phage library was added to each well (100 μl/well) and the plates incubated for 1 h at 4°C. • Plates with bait protein were washed 4× with 0.05% Tween in PBS, and nonbound phages were transferred from the tag protein plate and the plates incubated for 1 h at 4°C. • Plates were again washed 5× with 0.05% Tween in PBS, and bound phages were eluted with log‐phase OmniMax bacteria (100 μl/well) by incubating for 30 min at 37°C at 200 rpm. • M13K07 helper phage (10^12 cfu/ml) was added to each well and the plates incubated for 45 min at 37°C at 200 rpm. • Amplification took place o.n. by adding the eluted phages to 1.1 ml 2YT media supplemented with kanamycin (25 μg/ml), carbenicillin (50 μg/ml) and 0.3 μM IPTG in a 96‐deep‐well plate and incubating o.n. at 37°C at 200 rpm. • Bacteria were pelleted by centrifugation for 15 min at 1,700 × g at 4°C. The phage supernatant was pH‐adjusted by the addition of 10× PBS and remaining bacteria heat‐inactivated by incubating for 10 min at 60°C. Selections were repeated as described from (5).
Based on the results from phage pool ELISAs, samples from selection Day 3 and 4 were selected for NGS, as described previously (Benz et al, [2022]). • Peptide coding regions were amplified and dual‐barcoded by PCR. 5 μl of the enriched phage pools (50 μl reactions) and a high‐fidelity phusion polymerase (Roche) were used for the PCR reaction. Amplification was confirmed by running the PCR product on 2% agarose gel with a 50 bp ladder. • PCR products (25 μl) were purified with 25 μl of Mag‐bind Total Pure NGS beads and normalised in the same step by taking 10 μl of each reaction after resuspension (Qiagen Elution buffer: 10 mM Tris‐Cl and 0.1 mM EDTA (pH 8.5)) from the beads. • The samples were cleaned up with a PCR purification kit (Qiagen) and subsequently run on a 2% agarose gel, and bands of the correct size (ca. 200 bp) were purified with the QIAquick Gel extraction Kit (Qiagen). From the columns, samples were eluted with 30 μl TE (10 mM Tris–HCl, 1 mM EDTA. pH 7.5) buffer and quantified with Quant‐iT PicoGreen dsDNA Assay Kit. • Samples were sequenced on MiSeq (MSC 2.5.0.5/RTA 1.18.54) with a 151 nt (Read1) setup using “Version3” chemistry. The Bcl to FastQ conversion was performed using bcl2fastq_v2.20.0.422 from the CASAVA software suite.
The processing of sequencing data was performed as described in Ali et al ([2020]). In brief: Pooled results from ~500 selection experiments were demultiplexed by identifying unique combinations of 5′ and 3′ barcodes, sequences with an average quality score of 20 or more were conserved and their adaptors were trimmed, and DNA sequences translated using in‐house custom Python scripts. A table for each experiment was built containing peptide sequences associated with their sequencing counts. […]

TSG101 UEV = target: T3, TSG101 UEV (Homo sapiens, UniProt Q99816); experiment: FP displacement assay, TSG101 UEV; assay type: binding; details: for Kd: probe FITC-HIV2_Gag 5 nM, 50 mM sodium phosphate pH 7.4, room temperature, at least three technical replicates, read-out: KD values ± SEM; for IC50: Fig 4B, TSG101 UEV, technical triplicates, read-out: IC50 values of displacement curves, with SEM
T3 construct: TSG101_UEV__Q99816_1_145; made in house; host or cells: Escherichia coli BL21-Gold(DE3)
T3 sequence (Q99816 1-145): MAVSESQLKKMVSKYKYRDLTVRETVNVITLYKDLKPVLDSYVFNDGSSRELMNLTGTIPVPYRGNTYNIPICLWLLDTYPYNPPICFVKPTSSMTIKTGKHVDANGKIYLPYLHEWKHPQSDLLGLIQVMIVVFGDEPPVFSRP
Experimental: as §1, §2

T2 sequence (O00629 60-487): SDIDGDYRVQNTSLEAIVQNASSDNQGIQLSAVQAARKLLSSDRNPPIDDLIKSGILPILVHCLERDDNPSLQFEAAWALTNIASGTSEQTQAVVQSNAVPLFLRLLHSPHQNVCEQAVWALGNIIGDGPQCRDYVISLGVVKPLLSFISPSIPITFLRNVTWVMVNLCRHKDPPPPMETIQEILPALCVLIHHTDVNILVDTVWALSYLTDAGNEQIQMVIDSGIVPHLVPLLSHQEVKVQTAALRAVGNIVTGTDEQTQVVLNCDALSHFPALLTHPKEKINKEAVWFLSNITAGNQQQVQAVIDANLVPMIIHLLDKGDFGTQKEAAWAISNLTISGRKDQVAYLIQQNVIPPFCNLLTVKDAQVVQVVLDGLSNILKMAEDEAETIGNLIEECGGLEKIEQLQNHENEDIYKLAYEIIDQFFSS
T1 sequence (O00629 60-487): as above

Molecule: CC(=O)NCC(=O)N[C@@H](C)C(=O)N[C@@H](COP(=O)(O)O)C(=O)N1CCC[C@H]1C(=O)N[C@@H](C)C(=O)N[C@@H](CC(C)C)C(=O)N[C@@H](CCCCN)C(=O)N[C@@H](CCCNC(=N)N)C(=O)N[C@@H](CO)C(=O)N[C@@H](Cc1c[nH]cn1)C(=O)N[C@@H](CO)C(=O)N[C@@H](CC(=O)O)C(=O)N[C@@H](CO)C(=O)N[C@@H](Cc1ccc(O)cc1)C(N)=O [CDC25A114–125 pS] (Ac-GA[pS]PALKRSHSDSY-NH2)
- Kd (KPNA4 ARM minor): 2800 ± 400 nM
- Kd (KPNA4 ARM Major): 0.63 ± 0.04 µM

Molecule: DAPPHYPPPSTAAASP [listing 1 of 2 here]
- Has possible phosphoregulated psite? (PES +2/-2, p<0.01) (bait protein domains): yes
- Max confidence (bait protein domains): 3

Molecule: PPFSPPPSPRGEVERG
- Has possible phosphoregulated psite? (PES +2/-2, p<0.01) (bait protein domains): yes
- Max confidence (bait protein domains): 3

Molecule: DAPPHYPPPSTAAASP [listing 2 of 2 here]
- Confidence (bait protein domains): 2
- Promiscuity (bait protein domains): 3
- Specificity (bait protein domains): 0.7461

Molecule: CC(=O)NCC(=O)N[C@@H](C)C(=O)N[C@@H](CO)C(=O)N1CCC[C@H]1C(=O)N[C@@H](C)C(=O)N[C@@H](CC(C)C)C(=O)N[C@@H](CCCCN)C(=O)N[C@@H](CCCNC(=N)N)C(=O)N[C@@H](CO)C(=O)N[C@@H](Cc1c[nH]cn1)C(=O)N[C@@H](CO)C(=O)N[C@@H](CC(=O)O)C(=O)N[C@@H](CO)C(=O)N[C@@H](Cc1ccc(O)cc1)C(N)=O [CDC25A114–125 wt] (Ac-GASPALKRSHSDSY-NH2)
- Kd (KPNA4 ARM minor): 200 ± 4 nM
- Kd (KPNA4 ARM Major): 8.8 ± 0.2 µM

Molecule: PATSPPKTPPQLEALQ
- Confidence (bait protein domains): 3
- Promiscuity (bait protein domains): 3
- Specificity (bait protein domains): 0.9995

Next, values leading:

- Kd (TSG101 UEV): 232 ± 16 µM
Molecule: CSCC[C@H](NC(=O)[C@@H]1CCCN1C(=O)[C@H](CO)NC(=O)[C@H](CC(C)C)NC(=O)[C@@H]1CCCN1C(=O)[C@H](C)NC(=O)[C@@H](NC(=O)[C@@H]1CCCN1C(=O)[C@H](CO)NC(=O)[C@H](CO)NC(=O)[C@H](C)NC(=O)CNC(=O)[C@H](CC(N)=O)NC(=O)[C@H](Cc1ccc(O)cc1)NC(C)=O)[C@@H](C)O)C(=O)N[C@@H](CO)C(=O)N1CCC[C@H]1C(N)=O [GJA1_269–283 wt] (Ac-YNGASSPTAPLSPMSP-NH2)

- IC50 (TSG101 UEV): 34 ± 10 µM
- Kd (TSG101 UEV): 16 ± 3 µM
Molecule: CC[C@H](C)[C@H](NC(=O)[C@H](CO)NC(=O)[C@H](CCC(N)=O)NC(C)=O)C(=O)N[C@@H](C)C(=O)N[C@@H](CCCNC(=N)N)C(=O)N[C@@H](CCC(=O)O)C(=O)N1CCC[C@H]1C(=O)N[C@@H](CO)C(=O)N[C@@H](C)C(=O)N1CCC[C@H]1C(=O)N[C@@H](CO)C(=O)N[C@H](C(=O)N1CCC[C@H]1C(=O)N[C@H](C(=O)N1CCC[C@H]1C(=O)N[C@@H](Cc1ccc(O)cc1)C(N)=O)[C@@H](C)O)[C@@H](C)CC [PDCD6IP711–725 wt] (Ac-QSIAREPSAPSIPTPY-NH2)

- IC50 (TSG101 UEV): 420 ± 29 µM
- Kd (TSG101 UEV): 209 ± 8 µM
Molecule: CSCC[C@H](NC(=O)[C@@H]1CCCN1C(=O)[C@H](COP(=O)(O)O)NC(=O)[C@H](CC(C)C)NC(=O)[C@@H]1CCCN1C(=O)[C@H](C)NC(=O)[C@@H](NC(=O)[C@@H]1CCCN1C(=O)[C@H](CO)NC(=O)[C@H](CO)NC(=O)[C@H](C)NC(=O)CNC(=O)[C@H](CC(N)=O)NC(=O)[C@H](Cc1ccc(O)cc1)NC(C)=O)[C@@H](C)O)C(=O)N[C@@H](CO)C(=O)N1CCC[C@H]1C(N)=O [GJA1_269–283 pS] (Ac-YNGASSPTAPL[pS]PMSP-NH2)
